Measured values from patent publication US6770652B2, “Multiple acting anti-angiogenic and cytotoxic compounds and methods for using the same” (Duquesne University of the Holy Ghost, priority 2001, dated 2004).
pIC50: −log10 of the molar value. Where two headings read alike, the source gives them in different places.

Columns and labels:
[1] = system: chorioallantoic membrane (CAM) of 10-day old chicken embryos; assay: CAM assay (growth factor-induced angiogenesis on chorioallantoic membrane); assay type: in vivo; conditions: for pIC50: Gallus gallus, read-out: CAM angiogenesis Inhibition, apparent IC50
Description: Human VEGF-165 and BFGF (200 ng each) were added to saturation to a microbial testing disk and placed onto the chorioallantoic membrane (CAM) of 10-day old chicken embryos. Eight hours after the growth factor treatment, unknown compounds (100 μg) were added to the same microbial testing disk. Growth factors and embryos were allowed to incubate an additional 40 hours. CAMS were removed, paraformaldehyde (4% in PBS) fixed, placed onto Petri dishes, and digital images taken at 7.5× using a dissecting microscope. A 1×1-cm grid was then added to the digital CAM images and the number of vessels within each grid counted as a measure of vascularity. […] Data were then graphed (FIG. 1) as a percent of growth factor-induced blood vessel amounts.

Flk-1 = Flk-1 (Homo sapiens, UniProt P35968); assay: Phospho-Flk1 phosphotyrosine ELISA (cytoblot) on whole U251 glioblastoma cells; Flk1 kinase inhibition; assay type: cell-based
Sequence of Flk-1 (P35968 20-1356): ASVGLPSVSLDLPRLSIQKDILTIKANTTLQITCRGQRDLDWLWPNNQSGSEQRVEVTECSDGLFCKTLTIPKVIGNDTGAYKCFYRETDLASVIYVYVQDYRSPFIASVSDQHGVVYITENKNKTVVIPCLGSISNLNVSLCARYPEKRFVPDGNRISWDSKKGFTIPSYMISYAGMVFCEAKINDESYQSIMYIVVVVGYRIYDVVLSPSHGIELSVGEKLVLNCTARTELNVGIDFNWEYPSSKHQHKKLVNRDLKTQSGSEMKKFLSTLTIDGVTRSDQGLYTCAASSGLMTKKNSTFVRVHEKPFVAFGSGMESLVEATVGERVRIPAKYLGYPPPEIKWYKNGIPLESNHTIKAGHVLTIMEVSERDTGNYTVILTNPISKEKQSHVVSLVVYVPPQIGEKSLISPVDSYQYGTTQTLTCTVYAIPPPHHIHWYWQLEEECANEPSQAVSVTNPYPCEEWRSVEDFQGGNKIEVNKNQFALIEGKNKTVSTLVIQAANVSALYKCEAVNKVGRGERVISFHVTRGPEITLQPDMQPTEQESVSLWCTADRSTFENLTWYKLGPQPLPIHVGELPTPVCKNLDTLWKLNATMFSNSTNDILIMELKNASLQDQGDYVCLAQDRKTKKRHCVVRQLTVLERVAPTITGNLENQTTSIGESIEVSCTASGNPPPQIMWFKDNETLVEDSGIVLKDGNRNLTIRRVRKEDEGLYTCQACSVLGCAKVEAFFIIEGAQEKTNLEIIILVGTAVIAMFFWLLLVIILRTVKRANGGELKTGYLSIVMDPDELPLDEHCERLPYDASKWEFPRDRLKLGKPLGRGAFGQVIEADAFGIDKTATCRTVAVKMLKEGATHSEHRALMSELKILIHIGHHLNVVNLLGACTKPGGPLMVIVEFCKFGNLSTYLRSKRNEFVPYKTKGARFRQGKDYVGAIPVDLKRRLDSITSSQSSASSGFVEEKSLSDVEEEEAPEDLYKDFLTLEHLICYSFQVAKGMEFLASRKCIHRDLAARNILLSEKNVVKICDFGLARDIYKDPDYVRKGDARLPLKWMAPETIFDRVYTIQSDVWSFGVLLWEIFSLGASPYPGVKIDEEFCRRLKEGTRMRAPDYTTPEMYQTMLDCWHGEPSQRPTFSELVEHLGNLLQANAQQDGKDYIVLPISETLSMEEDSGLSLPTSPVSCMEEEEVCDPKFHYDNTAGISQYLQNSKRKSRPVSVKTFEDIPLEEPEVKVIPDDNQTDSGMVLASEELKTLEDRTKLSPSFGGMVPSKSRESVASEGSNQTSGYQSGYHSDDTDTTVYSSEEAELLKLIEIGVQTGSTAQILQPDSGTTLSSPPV
Description: Reactions were stopped by the aspiration of media and the addition of phosphate buffered saline (PBS) containing 0.05% triton X-100, protease inhibitor cocktail and phosphatase inhibitor cocktail 2 (Sigma Chemical company) for 10 minutes on ice. Cells were then fixed at 60° C. for 30 minutes and then cold methanol added to the cells for five minutes to further permeabilize them for antibody penetration. Cells were blocked for one hour with 1% bovine serum albumin in PBS, washed twice in PBS, and then anti-phosphotyrosine-HRP conjugate (Oncogene Research) added at 1:250 dilution overnight. The antibody was then removed, the cells washed three times in PBS with 1% BSA and once with PBS, and luminol-peroxide reagent added (Pierce Biochemical) for 5 minutes. […] Data are graphed as a percentage of growth factor (EGF, VEGF) treated controls.

Flt-1 = Flt-1 (Homo sapiens, UniProt P17948); assay: Flt-1 kinase inhibition; assay type: cell-based; conditions: Table 4; read-out: Flt-1 kinase Inhibition, apparent IC50
Sequence of Flt-1 (P17948 27-1338, species assumed): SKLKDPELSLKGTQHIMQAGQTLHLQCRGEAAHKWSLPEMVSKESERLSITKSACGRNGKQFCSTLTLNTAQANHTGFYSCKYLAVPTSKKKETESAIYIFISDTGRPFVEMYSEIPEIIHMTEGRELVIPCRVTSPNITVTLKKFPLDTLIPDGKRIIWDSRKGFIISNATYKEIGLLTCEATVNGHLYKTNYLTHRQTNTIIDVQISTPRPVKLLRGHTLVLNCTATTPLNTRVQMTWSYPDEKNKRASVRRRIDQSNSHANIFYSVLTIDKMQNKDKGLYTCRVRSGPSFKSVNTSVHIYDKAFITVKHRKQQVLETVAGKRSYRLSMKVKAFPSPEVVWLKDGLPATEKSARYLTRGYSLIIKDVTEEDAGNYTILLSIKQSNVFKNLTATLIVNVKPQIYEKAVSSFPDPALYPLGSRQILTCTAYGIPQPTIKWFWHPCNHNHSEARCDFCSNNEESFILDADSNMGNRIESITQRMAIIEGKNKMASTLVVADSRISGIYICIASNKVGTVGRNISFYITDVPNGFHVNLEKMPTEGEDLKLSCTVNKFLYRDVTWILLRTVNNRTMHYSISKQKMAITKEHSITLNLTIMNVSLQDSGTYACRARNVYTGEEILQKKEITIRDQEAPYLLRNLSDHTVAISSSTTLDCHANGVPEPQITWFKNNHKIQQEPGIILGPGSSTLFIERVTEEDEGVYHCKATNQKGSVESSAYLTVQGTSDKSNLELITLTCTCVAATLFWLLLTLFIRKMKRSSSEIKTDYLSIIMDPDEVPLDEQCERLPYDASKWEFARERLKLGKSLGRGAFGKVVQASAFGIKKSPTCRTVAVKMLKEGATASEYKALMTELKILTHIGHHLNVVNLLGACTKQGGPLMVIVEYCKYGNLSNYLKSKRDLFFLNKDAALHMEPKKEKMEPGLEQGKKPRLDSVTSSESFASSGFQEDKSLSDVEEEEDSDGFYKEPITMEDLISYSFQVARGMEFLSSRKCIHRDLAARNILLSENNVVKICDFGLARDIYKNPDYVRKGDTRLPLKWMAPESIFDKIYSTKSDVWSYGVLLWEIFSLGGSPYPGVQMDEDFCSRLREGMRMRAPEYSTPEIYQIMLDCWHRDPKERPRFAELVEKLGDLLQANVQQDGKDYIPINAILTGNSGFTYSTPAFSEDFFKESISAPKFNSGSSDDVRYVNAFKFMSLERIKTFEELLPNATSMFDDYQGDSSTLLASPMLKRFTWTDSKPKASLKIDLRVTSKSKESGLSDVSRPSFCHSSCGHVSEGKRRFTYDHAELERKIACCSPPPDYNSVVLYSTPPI

U251 cytotoxicity = assay type: cell-based; conditions: human, U251 cells; Table 4; read-out: U251 cytotoxicity Inhibition, apparent IC50
[2] = Table 2, read-out: FIK1 Kinase Inhibition IC50
[3] = Table 4, U251 cells overexpress Flk1, read-out: Flk-1 kinase Inhibition, apparent IC50

Structure (SMILES)	pIC50 [1]	further results
Nc1nc(Nc2cccc(Br)c2)c2cc(Cc3ccc(Cl)cc3Cl)[nH]c2n1 [YJ/AG 176]	4.97	–
Nc1nc(Nc2cccc(Br)c2)c2cc(Cc3ccc(Cl)c(Cl)c3)[nH]c2n1 [YJ/AG 148]	> 7.00	Toxicity remark in CAM angiogenesis column ([1]; Table 4, remark under the CAM value): (toxic)
Nc1nc(Nc2cccc(Br)c2)c2cc(Cc3ccc4ccccc4c3)[nH]c2n1 [YJ/AG 146]	5.05	pIC50 (Flk-1; [2]): < 4.30; pIC50 (Flk-1; [3]): < 4.30
Cc1ccccc1Cc1cc2c(Nc3cccc(Br)c3)nc(N)nc2[nH]1 [YJ/AG 168]	5.92	pIC50 (Flt-1): < 4.30; pIC50 (U251 cytotoxicity): 5.30; pIC50 (Flk-1; [2]): 6.52
Cc1cc(C)c(/C=C2\C(=O)Nc3ccccc32)[nH]1 [SU5416, reference compound]	> 7.00	pIC50 (U251 cytotoxicity): 6.70
COc1ccc(OC)c(Cc2cc3c(Nc4cccc(Br)c4)nc(N)nc3[nH]2)c1 [YJ/AG 178]	5.89	pIC50 (Flk-1; [2]): 6.22; pIC50 (Flk-1; [3]): 6.22
Nc1nc(Nc2cccc(Br)c2)c2cc(Cc3cccc4ccccc34)[nH]c2n1 [YJ/AG 158]	> 7.00	–
COc1cc(Cc2cc3c(Nc4cccc(Br)c4)nc(N)nc3[nH]2)cc(OC)c1OC [YJ/AG 177]	6.40	–
Nc1nc(Nc2cccc(Br)c2)c2cc(Cc3ccc(-c4ccccc4)cc3)[nH]c2n1 [YJ/AG 154]	> 7.00	–
Nc1nc(Nc2cccc(Br)c2)c2cc(Cc3ccccc3Cl)[nH]c2n1 [YJ/AG 145]	5.77	–
Nc1nc(Nc2cccc(Br)c2)c2cc(Cc3ccccc3)[nH]c2n1 [YJ/AG 156]	> 7.00	pIC50 (U251 cytotoxicity): 5.47
